Like-named read-outs stand apart in the source and are kept apart here. *1 amine or outer side, *2 acyl side, *3 side chain or, on linkers, in order; H or OH if unused. Where a SMILES comes first, the peptide text is derived from it. Bridges are numbered along the chain shown (N, C = ends). [ ]: non-standard residue; d: D form. Bip = N[C@@H](Cc1ccc(-c2ccccc2)cc1)C(=O)O; 2Nal = N[C@@H](Cc1ccc2ccccc2c1)C(=O)O; AEF = NCCOc1ccc(C[C@H](N)C(=O)O)cc1; αMeL = CC(C)C[C@](C)(N)C(=O)O; CH2COCH2 = O=C(C[*:1])C[*:2]
What was measured:
human IL-23R = target: T1, human IL-23R (Homo sapiens, UniProt Q5VWK5); assay: Binding assay (NanoBRET displacement of fluorophore-labelled reference compound) for estimating binding affinity to human IL-23R
T1 construct: UniProtKB—Q5VWK5, amino acids 22-629; secretion signal of the plasmid (Promega N1371); expressed in transfected cells
T1 sequence (Q5VWK5 22-629): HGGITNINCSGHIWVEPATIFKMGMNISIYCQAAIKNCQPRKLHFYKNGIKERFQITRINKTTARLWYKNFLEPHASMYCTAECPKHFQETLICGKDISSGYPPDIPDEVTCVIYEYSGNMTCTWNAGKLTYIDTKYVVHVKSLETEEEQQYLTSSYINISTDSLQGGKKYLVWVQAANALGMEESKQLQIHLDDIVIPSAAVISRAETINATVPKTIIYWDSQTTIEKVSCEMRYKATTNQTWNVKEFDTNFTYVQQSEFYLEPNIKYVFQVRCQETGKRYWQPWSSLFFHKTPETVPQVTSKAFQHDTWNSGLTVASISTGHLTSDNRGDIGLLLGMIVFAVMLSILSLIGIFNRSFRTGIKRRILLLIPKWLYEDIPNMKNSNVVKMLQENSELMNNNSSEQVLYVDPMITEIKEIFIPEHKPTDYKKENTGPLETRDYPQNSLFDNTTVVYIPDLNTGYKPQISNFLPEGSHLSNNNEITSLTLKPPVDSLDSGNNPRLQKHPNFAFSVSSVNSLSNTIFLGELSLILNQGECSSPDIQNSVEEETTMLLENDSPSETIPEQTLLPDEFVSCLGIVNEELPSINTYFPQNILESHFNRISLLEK

[1] = target: IL-23 mediated phospho-STAT3 formation in DB cells (Homo sapiens, UniProt Q5VWK5); assay: Functional inhibition of IL-23 mediated STAT3 signalling (phospho-STAT3 Tyr705 MSD) in DB cells; assay type: cell-based
Source text: Functional Inhibition of IL-23 Mediated STAT3 Signalling by Compounds
Upon binding of IL-23, the IL-23R forms a heterodimer signalling complex together with IL-12R β1, which through the JAK2/STAT3 pathway promotes phosphorylation of STAT3 to form phospho-STAT3.
The assay was used to quantify the functional antagonism of a compound and to rank order the inhibitor compounds according to their potency. For compounds tested in this assay, the response was normalized relative to control values to calculate the IC50 and maximal inhibitory response from a concentration response curve of the compound in presence of a fixed concentration of human IL-23.
The assay procedure was as follows. […] Following preincubation of the DB cells with inhibitor for 15 min in a cell incubator (37° C., 5% CO2), 20 μL of the prepared 3× the EC80 of hIL-23 solution was added to each well and incubated for 90 min in a cell incubator (37° C., 5% CO2). For some wells buffer only or IL-23 only corresponding to the EC80 was added to obtain readouts needed for normalization. To terminate the assay, the plate was spun at 1000 G for 5 min to pellet cells, the supernatant removed using an 8-channel manual pipette, and then added 50 μL/well Complete Lysis Buffer from the MSD STAT3 kit (Cat #K150SVD, Mesoscale) to the cell pellet. To completely lyse cells to release phospho-STAT3 for detection, the plate was shaken for 10 min at room temperature (500 rpm) sealed with aluminum foil and placed at −80° C. for a minimum of 15 min. Detection of the phospho-STAT3 level in the cell lysate from the individual wells was determined using the MSD STAT3 kit (Cat #K150SVD, Mesoscale) and read on a Meso QuickPlex SQ 120 plate reader (Mesoscale).
For data analysis raw data counts from the Meso QuickPlex SQ 120 plate reader were normalized relative to the response by the EC80 of hIL-23 alone (no compound added) and the buffer level. Compound potency (IC50) and maximal inhibitory response (% inhibition) were estimated by computer-aided curve fitting using a 4-parameter logistic (4PL) non-linear model.

[2] = Table 2-7b, read-out: Ki IL-23R
[3] = Table 2-7b, DB cells, read-out: IC50 (pSTAT3)
[4] = Table 3-1, DB cells, read-out: IC50 (pSTAT3)
[5] = Table 3-1, read-out: Ki hIL-23R

SMILES	Ki (human IL-23R; [2]) [nM]	IC50 [1, 3] [nM]	IC50 [1, 4] [nM]	Ki (human IL-23R; [5]) [nM]	other results
CC(=O)N[C@@H](CC(=O)O)C(=O)N[C@H]1CCCCNC(=O)CC[C@@H](C(=O)N[C@@H](CCCNC(=N)N)C(N)=O)NC(=O)[C@H](CC(C)C)NC(=O)[C@H](Cc2ccc3ccccc3c2)NC(=O)[C@H](Cc2c[nH]c3ccccc23)NC(=O)[C@@H]2CSCC(=O)CSC[C@H](NC(=O)[C@H](CO)NC1=O)C(=O)N[C@@H](Cc1c[nH]c3ccccc13)C(=O)N[C@@H](CCC(N)=O)C(=O)N2 [Compound 19, [Ac]-DK(1c)SC(2a)WQC(2a)W[2-Nal]LE(1c)R-[NH2]] (HELM PEPTIDE1{[ac].D.K.S.C.W.Q.C.W.[O=C([C@H](Cc1ccc2ccccc2c1)N[*:1])[*:2]].L.E.R.[am]}|CHEM1{[O=C(C[*:1])C[*:2]]}$PEPTIDE1,PEPTIDE1,3:R3-12:R3|PEPTIDE1,CHEM1,5:R3-1:R1|PEPTIDE1,CHEM1,8:R3-1:R2$$$V2.0)					Ki (human IL-23R; Table 2-6b, read-out: Ki IL-23R): 6.32 nM; IC50 ([1]; Table 2-6b, DB cells, read-out: IC50 (pSTAT3)): 32.3 nM
CC(=O)N[C@@H](CC(=O)O)C(=O)N[C@H]1CCCCNC(=O)CC[C@@H](C(=O)N[C@@H](CCCNC(=N)N)C(N)=O)NC(=O)[C@H](CC(C)C)NC(=O)[C@H](Cc2ccc3ccccc3c2)NC(=O)[C@H](Cc2c[nH]c3ccccc23)NC(=O)[C@@H]2CSCc3ccc(cc3)CSC[C@H](NC(=O)[C@H](CO)NC1=O)C(=O)N[C@@H](Cc1c[nH]c3ccccc13)C(=O)N[C@@H](CCC(N)=O)C(=O)N2 [Compound 22, [Ac]-DK(1c)SC(2f)WQC(2f)W[2-Nal]LE(1c)R-[NH2]] (HELM PEPTIDE1{[ac].D.K.S.C.W.Q.C.W.[O=C([C@H](Cc1ccc2ccccc2c1)N[*:1])[*:2]].L.E.R.[am]}|CHEM1{[c1cc(C[*:2])ccc1C[*:1]]}$PEPTIDE1,PEPTIDE1,3:R3-12:R3|PEPTIDE1,CHEM1,5:R3-1:R1|PEPTIDE1,CHEM1,8:R3-1:R2$$$V2.0)	563	> 1000	> 1000		
CC(=O)N[C@H]1CCCCNC(=O)CC[C@@H](C(=O)N[C@@H](CCCNC(=N)N)C(N)=O)NC(=O)[C@H](CC(C)C)NC(=O)[C@H](Cc2ccc3ccccc3c2)NC(=O)[C@H](Cc2ccc(OCCN)cc2)NC(=O)[C@@H]2CSCC(=O)CSC[C@H](NC(=O)[C@H](CO)NC1=O)C(=O)N[C@@H](Cc1c[nH]c3ccccc13)C(=O)N[C@@H](CCC(N)=O)C(=O)N2 [Compound 29, [Ac]-K(1c)SC(2a)WQC(2a)[Y(2-aminoethoxy)][2-Nal]LE(1c)R-[NH2]] (Ac-KSCWQC[AEF][2Nal]LER-NH2; lactam 1-10; linker 3-6 via CH2COCH2)				0.68	Ki (human IL-23R; Table 2-9b, read-out: Ki IL-23R): 0.64 nM; IC50 ([1]; Table 2-9b, DB cells, read-out: IC50 (pSTAT3)): 19.7 nM
CC(=O)N[C@@H](CC(=O)O)C(=O)N[C@H]1CSCC(=O)CSC[C@@H](C(=O)N[C@@H](CCCNC(=N)N)C(N)=O)NC(=O)[C@](C)(CC(C)C)NC(=O)[C@H](Cc2c[nH]c3ccccc23)NC(=O)[C@H](Cc2ccc3ccccc3c2)NC(=O)[C@@H]2CSCC(=O)CSC[C@H](NC(=O)[C@H](CCC(N)=O)NC1=O)C(=O)N[C@@H](Cc1c[nH]c3ccccc13)C(=O)N[C@@H](CCC(N)=O)C(=O)N2 [Compound 62, [Ac]-DC(1a)QC(2a)WQC(2a)[2-Nal]W[2-Me-Leu]C(1a)R-[NH2]] (Ac-DCQCWQC[2Nal]W[αMeL]CR-NH2; linker 2-11, 4-7 via CH2COCH2)					Ki (human IL-23R): > 1000 nM; IC50 [1]: > 1000 nM
CC(=O)N[C@@H](CC(=O)O)C(=O)N[C@H]1CSCC(=O)CSC[C@@H](C(=O)N[C@@H](CCCNC(=N)N)C(N)=O)NC(=O)[C@](C)(CC(C)C)NC(=O)[C@H](Cc2c[nH]c3ccccc23)NC(=O)[C@H](Cc2ccc(O)cc2)NC(=O)[C@@H]2CSCC(=O)CSC[C@H](NC(=O)[C@H](CCC(N)=O)NC1=O)C(=O)N[C@@H](Cc1c[nH]c3ccccc13)C(=O)N[C@@H](CCC(N)=O)C(=O)N2 [Compound 63, [Ac]-DC(1a)QC(2a)WQC(2a)YW[2-Me-Leu]C(1a)R-[NH2]] (Ac-DCQCWQCYW[αMeL]CR-NH2; linker 2-11, 4-7 via CH2COCH2)					Ki (human IL-23R): > 1000 nM; IC50 [1]: > 1000 nM

More lines, main results first:

Ki (human IL-23R; [2]) [nM]	IC50 [1, 3] [nM]	IC50 [1, 4] [nM]	Ki (human IL-23R; [5]) [nM]	SMILES	other results
24.6	79.2			CC(=O)N[C@@H](CC(=O)O)C(=O)N[C@H]1CCCCNC(=O)CC[C@@H](C(=O)N[C@@H](CCCNC(=N)N)C(N)=O)NC(=O)[C@H](CC(C)C)NC(=O)[C@H](Cc2ccc3ccccc3c2)NC(=O)[C@H](Cc2c[nH]c3ccccc23)NC(=O)[C@@H]2CSCc3ccccc3CSC[C@H](NC(=O)[C@H](CO)NC1=O)C(=O)N[C@@H](Cc1c[nH]c3ccccc13)C(=O)N[C@@H](CCC(N)=O)C(=O)N2 [Compound 20, [Ac]-DK(1c)SC(2d)WQC(2d)W[2-Nal]LE(1c)R-[NH2]] (HELM PEPTIDE1{[ac].D.K.S.C.W.Q.C.W.[O=C([C@H](Cc1ccc2ccccc2c1)N[*:1])[*:2]].L.E.R.[am]}|CHEM1{[c1ccc(C[*:2])c(C[*:1])c1]}$PEPTIDE1,PEPTIDE1,3:R3-12:R3|PEPTIDE1,CHEM1,5:R3-1:R1|PEPTIDE1,CHEM1,8:R3-1:R2$$$V2.0)	
634	> 1000	> 1000		CC(=O)N[C@@H](CC(=O)O)C(=O)N[C@H]1CCCCNC(=O)CC[C@@H](C(=O)N[C@@H](CCCNC(=N)N)C(N)=O)NC(=O)[C@H](CC(C)C)NC(=O)[C@H](Cc2ccc3ccccc3c2)NC(=O)[C@H](Cc2c[nH]c3ccccc23)NC(=O)[C@@H]2CSCc3cccc(c3)CSC[C@H](NC(=O)[C@H](CO)NC1=O)C(=O)N[C@@H](Cc1c[nH]c3ccccc13)C(=O)N[C@@H](CCC(N)=O)C(=O)N2 [Compound 21, [Ac]-DK(1c)SC(2e)WQC(2e)W[2-Nal]LE(1c)R-[NH2]] (HELM PEPTIDE1{[ac].D.K.S.C.W.Q.C.W.[O=C([C@H](Cc1ccc2ccccc2c1)N[*:1])[*:2]].L.E.R.[am]}|CHEM1{[c1cc(C[*:1])cc(C[*:2])c1]}$PEPTIDE1,PEPTIDE1,3:R3-12:R3|PEPTIDE1,CHEM1,5:R3-1:R1|PEPTIDE1,CHEM1,8:R3-1:R2$$$V2.0)	
		> 1000	> 1000	CC(=O)N[C@H]1CCCCNC(=O)CC[C@@H](C(=O)N[C@@H](CCCNC(=N)N)C(N)=O)NC(=O)[C@H](CC(C)C)NC(=O)[C@H](Cc2ccc3ccccc3c2)NC(=O)[C@H](Cc2c[nH]c3ccccc23)NC(=O)[C@@H]2CSCC(=O)CSC[C@H](NC(=O)[C@H](CO)NC1=O)C(=O)N[C@@H](Cc1ccc(-c3ccccc3)cc1)C(=O)N[C@@H](CCC(N)=O)C(=O)N2 [Compound 26, [Ac]-K(1c)SC(2a)[Bip]QC(2a)W[2-Nal]LE(1c)R-[NH2]] (Ac-KSC[Bip]QCW[2Nal]LER-NH2; lactam 1-10; linker 3-6 via CH2COCH2)	
		> 1000	> 1000	CC(C)C[C@@H]1NC(=O)[C@H](Cc2ccc3ccccc3c2)NC(=O)[C@H](Cc2c[nH]c3ccccc23)NC(=O)[C@@H]2CSCC(=O)CSC[C@H](NC(=O)[C@H](CO)NC(=O)CCNC(=O)CC[C@@H](C(=O)N[C@@H](CCCNC(=N)N)C(N)=O)NC1=O)C(=O)N[C@@H](Cc1c[nH]c3ccccc13)C(=O)N[C@@H](CCC(N)=O)C(=O)N2 [Compound 36, [bAla](1c)*SC(2a)WQC(2a)W[2-Nal]LE(1c)R-[NH2]] (HELM PEPTIDE1{[bAla].S.C.W.Q.C.W.[O=C([C@H](Cc1ccc2ccccc2c1)N[*:1])[*:2]].L.E.R.[am]}|CHEM1{[O=C(C[*:1])C[*:2]]}$PEPTIDE1,CHEM1,3:R3-1:R1|PEPTIDE1,CHEM1,6:R3-1:R2|PEPTIDE1,PEPTIDE1,1:R1-10:R3$$$V2.0)	

Reference: US20250154198A1, “PEPTIDE INHIBITORS OF INTERLEUKIN-23 RECEPTOR” (Zealand Pharma A/S, priority 2021, published 2025)
